# System: GM3
# Assay: GM3 Elisa assay
# Assay type: cell-based
# Settings: 48 h, Table 2; B16-FO cells, 2 days incubation; read-out: IC50_uM_Mean
# Method: B16-FO cells from ATCC (American Tissue Culture Collection) were grown in DMEM media (ATCC) with 10% Fetal Bovine Serum (Hyclone) and Pen/Step/Glutamine (Biowhittaker). 4000 cells per well were plated on collagen coated plates (BD) and allowed to attach for 6 hours in an incubator (37 degrees, 5% CO2). After 6 hours the compounds and controls were added to the wells, the plates mixed and returned to the incubator for 2 days. Day of assay the cells were fixed for 20 minutes with 1% formaldehyde and then washed with Tris Buffered Saline (TBS) 3 times, 150 μl of TBS was left in the wells and 50 μl of goat serum (Invitrogen) was added, the plates mixed and incubated for 1 hour at room temperature. The plates were flicked and the cells incubated with the monoclonal Antibody to GM3 (NeuAc) (Cosmo) for 45 minutes as room temperature. The plates were then washed 3 times with TBS, leaving 150 μl of TBS in the wells and Peroxidase AffinPure F (ab′) 2 frag Gt Anti-mouse IgM, μ Chain Specific (Jackson Immno Research) was added in 50 μl, the plates mixed and incubated for 45 minutes at room temperature. The plates were washed 3 times with TBS, flicked and blotted and 100 μl of Quantablu (Pierce) was added to the wells and incubated for 1 hour then read on a Fluorometer at Ex 325 and Em 420. The data was then analyzed using standard programs.
row,IC50,SMILES
1,≤ 100 nM,Cc1ccc(C(=O)CCC(=O)N[C@H](CC2CCCC2)[C@H](O)c2ccc3c(c2)CCCC3)cc1 [Compound 264]
2,≤ 100 nM,COC(=O)CO[C@H](c1ccc2c(c1)OCO2)[C@@H](CN1CCCC1)NC(=O)CCOc1ccc(OC)cc1 [Compound 275]

# Same assay, conditions: 48 h, Table 3; B16-FO cells, 2 days incubation; read-out: IC50_uM_Mean
row,SMILES,IC50
1,COc1ccc(C(=O)CCCCCC(=O)N[C@H](CN2CCC[C@H]2C)[C@H](O)c2ccc3c(c2)OCCO3)cc1 [Compound 529],≤ 100 nM
2,COCCOc1ccc(C(O)[C@@H](CN2CCCC2)NC(=O)CCCCC(=O)c2ccc(OC)cc2)cc1 (stereo partly shown) [Compound 417],≤ 100 nM
3,COc1ccc(OCCC(=O)N[C@@H](CN2CCCC2)[C@@H](O)c2ccc3c(c2)OCCO3)cc1 [Compound 674],3000 to 10000 nM
4,CCCNC[C@@H](NC(=O)CCCCCC(=O)c1ccc(OC)cc1)[C@H](O)c1ccc2c(c1)OCCO2 [Compound 467],100 to 1000 nM
5,COc1ccc(OCCC(=O)N[C@H](CN2CCC[C@H]2C)[C@H](O)c2ccc3c(c2)OCCO3)cc1 [Compound 528],1000 to 3000 nM
6,COc1ccc(OCCC(=O)N[C@@H](CN2CCCC2)[C@H](O)c2ccc3c(c2)OCCO3)cc1 [Compound 675],3000 to 10000 nM
7,CCCCCCCC(=O)N[C@H](CN1CCC(C)(C)C1)[C@@H](O)c1ccc2c(c1)OCCO2 [Compound 521],3000 to 10000 nM
8,COc1ccc(C(=O)CCCCCC(=O)N[C@H](CNC(C)C)[C@@H](O)c2ccc3c(c2)OCCO3)cc1 [Compound 465],100 to 1000 nM
9,COc1ccc(C(=O)CCCCCC(=O)N[C@H](CN2CCC(C)(C)C2)[C@@H](O)c2ccc3c(c2)OCCO3)cc1 [Compound 520],1000 to 3000 nM
10,COc1ccc(C(=O)CCCCC(=O)NC(CN2CCCC2)[C@H](O)c2ccc(OCCC3CCCCC3)cc2)cc1 (stereo partly shown) [Compound 419],≤ 100 nM
11,COc1ccc(OCCC(=O)N[C@H](CN2CCC[C@@H]2C)[C@H](O)c2ccc3c(c2)OCCO3)cc1 [Compound 526],100 to 1000 nM
12,COc1ccc(CCCCN(C(=O)CCCCC(=O)c2ccc(OC)cc2)[C@H](CN2CCCC2)[C@H](O)c2ccc(O)cc2)cc1 [Compound 429],3000 to 10000 nM
13,COc1ccc(OCCC(=O)N[C@H](CN2CCCC2)[C@@H](O)c2ccc3c(c2)OCCO3)cc1 [Compound 676],3000 to 10000 nM
14,CCCCCCCC(=O)N[C@H](CN1CCC[C@@H]1C)[C@H](O)c1ccc2c(c1)OCCO2 [Compound 527],1000 to 3000 nM
15,COc1ccc(C(=O)CCCCCC(=O)N[C@H](CN2CCC[C@@H]2C)[C@H](O)c2ccc3c(c2)OCCO3)cc1 [Compound 525],≤ 100 nM
16,COc1ccc(C(=O)CCCCCC(=O)N[C@H](CN2CC[C@@H](O)C2)[C@@H](O)c2ccc3c(c2)OCCO3)cc1 [Compound 518],100 to 1000 nM

# Results, then the compound that gave them:
row,IC50,SMILES
1,3000 to 10000 nM,N#CCCCCCC(=O)C[C@H](CN1CCCC1)[C@H](O)c1ccc2c(c1)OCCO2 [Compound 632]
2,3000 to 10000 nM,CCCCCCCCCCCCCCCC(=O)N[C@H](CN(C)Cc1ccccc1)[C@@H](O)c1ccc2c(c1)OCCO2 [Compound 682]
3,100 to 1000 nM,COC[C@@H]1CCCN1CC(NC(=O)CCCCCC(=O)c1ccc(OC)cc1)[C@@H](O)c1ccc2c(c1)OCCO2 (stereo partly shown) [Compound 533]
4,100 to 1000 nM,COCOc1ccc(C(=O)CCCC(=O)N[C@H](CN2CC[C@H](O)C2)[C@H](O)c2ccc(OC(C)C)cc2)cc1 [Compound 737]
5,3000 to 10000 nM,CCCCCCCC(=O)NC(CN1[C@H](C)CC[C@H]1C)[C@H](O)c1ccc2c(c1)OCCO2 (stereo partly shown) [Compound 549]
6,3000 to 10000 nM,Cc1noc(CCCCC(=O)N[C@@H](CC2CCCC2)[C@H](O)c2ccc3c(c2)OCCO3)n1 [Compound 652]
7,100 to 1000 nM,O=C(CCCCS(=O)(=O)C12CC3CCCC(C1)C(C3)C2)N[C@H](CN1CCCC1)[C@@H](O)c1ccc2c(c1)OCCO2 (stereo partly shown) [Compound 560]
8,100 to 1000 nM,O=C(CCCCOCC(F)(F)F)N[C@H](CN1CCCC1)[C@H](O)c1ccc(CCc2ccccc2)cc1 [Compound 647]
9,1000 to 3000 nM,COc1ccc([C@@H](O)[C@@H](CN2CCCC2)NC(=O)CCCCCC(C)=O)cc1 [Compound 664]
10,1000 to 3000 nM,CCCCOc1ccc([C@@H](O)[C@@H](CN2CC[C@@H](O)C2)NC(=O)CCCCCOCCF)cc1 [Compound 661]
11,3000 to 10000 nM,COC[C@H]1CCCN1C[C@@H](NC(=O)CCOc1ccc(OC)cc1)[C@H](O)c1ccc2c(c1)OCCO2 [Compound 538]
12,100 to 1000 nM,O=C(CCCCCC1CCOCC1)N[C@H](CN1CC[C@@H](F)C1)[C@H](O)c1cccc(OCc2ccccc2)c1 [Compound 574]
13,100 to 1000 nM,CCCCOc1ccc([C@@H](O)[C@@H](CN2CC[C@@H](F)C2)NC(=O)CCCCCCCOC)cc1 [Compound 584]
14,1000 to 3000 nM,COc1ccc(C(=O)CCCCCC(=O)NC(CN2[C@H](C)CC[C@H]2C)[C@H](O)c2ccc3c(c2)OCCO3)cc1 (stereo partly shown) [Compound 548]
15,3000 to 10000 nM,COc1ccc(OCCC(=O)N[C@H](CN2C(C)CCCC2C)[C@@H](O)c2ccc3c(c2)OCCO3)cc1 (stereo partly shown) [Compound 598]
16,3000 to 10000 nM,COc1ccc(OCCC(=O)NC(CN2[C@H](C)CC[C@H]2C)[C@H](O)c2ccc3c(c2)OCCO3)cc1 (stereo partly shown) [Compound 550]
17,3000 to 10000 nM,Cc1nccn1C[C@@H](NC(=O)CCCCCC(=O)c1ccc(F)cc1)[C@H](O)c1ccc2c(c1)OCCO2 [Compound 569]

# Same assay, conditions: 48 h; Table 1; B16-FO cells, 2 days incubation; read-out: IC50_uM_Mean
row,SMILES,IC50
1,"COc1ccc(OCCC(=O)N[C@H](CN2CCCC2)[C@H](O)c2ccc3c(c2)OCCO3)cc1 [Compound 61, N-((1R,2R)-1-(2,3-dihydrobenzo[β][1,4]dioxin-6-yl)-1-hydroxy-3-(pyrrolidin-1-yl)propan-2-yl)-3-(4-methoxyphenoxy)propanamide]",≤ 100 nM

# Same assay, conditions: Table 1; B16-FO cells, 2 days incubation; read-out: IC50_uM_Mean
row,SMILES,IC50
1,"CC(=O)CCc1ccc(OCCC(=O)N[C@H](CN2CCCC2)[C@H](O)c2ccc3c(c2)OCCO3)cc1 [Compound 193, N-((1R,2R)-1-(2,3-dihydrobenzo[b][1,4]dioxin-6-yl)-1-hydroxy-3-(pyrrolidin-1-yl)propan-2-yl)-3-(4-(3-oxobutyl)phenoxy)propanamide(2R,3R)-2,3-dihydroxysuccinate]",100 to 1000 nM

# Source: US8729075B2, “Glucosylceramide synthase inhibition for the treatment of collapsing glomerulopathy and other glomerular disease” (Genzyme Corporation, priority 2008, dated 2014)
